Results reported in patent publication US20250313572A1, “MACROCYCLIC MCL-1 INHIBITORS AND METHODS OF USE” (AbbVie Inc., priority 2017, published 2025).
Where two headings read alike, the source gives them in different places.

Key:
GST-MCL-1 = GST-MCL-1 (Homo sapiens, UniProt Q07820); experiment: TR-FRET MCL-1 binding assay (competition with probe F-Bak)
Summary of the method: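 Test compounds, 11 three-fold dilutions from 25 μM final, incubated 2 hours at room temperature with GST-MCL-1, F-Bak probe and Tb-anti-GST antibody. TR-FRET read at 340/35 nm excitation with 520/525 and 495/510 nm emission. Run without human serum and with 10% HS.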

[1] = tested on: AMO-1 human multiple myeloma tumor cell line; experiment: AMO-1 cell viability assay (CellTiter-Glo, 24 hours); format: cell-based; conditions: Homo sapiens, AMO1, 24 h, read-out: AMO-1 Viability IC50 (μM, 10% FBS), 10% FBS, 24 hours of compound treatment
Protocol: Each concentration was tested in duplicate at least 3 independent times. A luminescent signal proportional to the number of viable cells following 24 hours of compound treatment was determined using the CellTiter-Glo® Luminescent Cell Viability Assay according to the manufacturer's recommendations (Promega Corp., Madison, WI). The plates were read in a Perkin Elmer Envision using a Luminescence protocol. To generate dose response curves the data is normalized to percent viability by setting the averages of the staurosporine (10 μM) and DMSO only control wells to 0% and 100% viability respectively.

[2] = tested on: NCI-H929 human multiple myeloma tumor cell line; experiment: NCI-H929 cell viability assay (CellTiter-Glo, 24 hours); format: cell-based; conditions: Homo sapiens, NCI-H929, 24 h, read-out: H929 Viability IC50 (μM, 10% FBS), 10% FBS, 24 hours of compound treatment
[3] = MCL-1 Binding Ki (nM, 10% HS), in the presence of 10% HS (human serum)
[4] = without HS, read-out: MCL-1 Binding Ki

GST-MCL-1, sequence (Q07820 whole entry): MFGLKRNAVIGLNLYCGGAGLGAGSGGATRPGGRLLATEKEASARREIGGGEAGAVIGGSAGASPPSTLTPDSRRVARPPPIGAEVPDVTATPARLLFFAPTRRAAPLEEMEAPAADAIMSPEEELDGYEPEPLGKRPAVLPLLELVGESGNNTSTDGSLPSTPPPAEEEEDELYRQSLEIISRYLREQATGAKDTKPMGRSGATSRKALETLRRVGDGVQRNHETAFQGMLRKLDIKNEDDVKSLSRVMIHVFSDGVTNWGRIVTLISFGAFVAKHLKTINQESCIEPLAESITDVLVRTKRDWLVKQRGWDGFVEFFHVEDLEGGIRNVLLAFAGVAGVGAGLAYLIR

Row | SMILES | Ki (GST-MCL-1; [3]) | Ki (GST-MCL-1; [4]) | IC50 [1] | IC50 [2]
1 | Cc1c(Cl)c2c(Cl)c(C)c1-c1c(-c3ccc(F)cc3)sc3ncnc(c13)O[C@@H](C(=O)O)Cc1cc(ccc1OCc1ccnc(C3CCS(=O)(=O)C3)n1)OC[C@@H](CN1CCN(C)CC1)O2 (stereo partly drawn) [Example 73, (7R,16R)-19,23-dichloro-10-{[2-(1,1-dioxo-1λ^6-thiolan-3-yl)pyrimidin-4-yl]methoxy}-1-(4-fluorophenyl)-20,22-dimethyl-16-[(4-methylpiperazin-1-yl)methyl]-7,8,15,16-tetrahydro-18,21-etheno-9,13-(metheno)-6,14,17-trioxa-2-thia-3,5-diazacyclononadeca[1,2,3-cd]indene-7-carboxylic Acid] | 0.208 nM | 0.037 nM | 0.00262 µM | 0.00556 µM
2 | COCCOCCOCCOCCOCCOCCOC1(c2nccc(COc3ccc4cc3C[C@H](C(=O)O)Oc3ncnc5sc(-c6ccc(F)cc6)c(c35)-c3c(C)c(Cl)c(c(Cl)c3C)O[C@H](CN3CCN(C)CC3)CO4)n2)CCCC1 [Example 74, (7R,16R)-19,23-dichloro-1-(4-fluorophenyl)-10-[(2-{1-[(2,5,8,11,14,17-hexaoxanonadecan-19-yl)oxy]cyclopentyl}pyrimidin-4-yl)methoxy]-20,22-dimethyl-16-[(4-methylpiperazin-1-yl)methyl]-7,8,15,16-tetrahydro-18,21-etheno-9,13-(metheno)-6,14,17-trioxa-2-thia-3,5-diazacyclononadeca[1,2,3-cd]indene-7-carboxylic Acid] | 0.12 nM | 0.083 nM | 0.00153 µM | 0.00237 µM
3 | Cc1c(Cl)c2c(Cl)c(C)c1-c1c(-c3ccc(F)cc3)sc3ncnc(c13)O[C@@H](C(=O)O)Cc1cc(ccc1OCc1ccnc(N3CCS(=O)(=O)CC3)n1)OC[C@@H](CN1CCN(C)CC1)O2 [Example 75, (7R,16R)-19,23-dichloro-10-{[2-(1,1-dioxo-1λ^6-thiomorpholin-4-yl)pyrimidin-4-yl]methoxy}-1-(4-fluorophenyl)-20,22-dimethyl-16-[(4-methylpiperazin-1-yl)methyl]-7,8,15,16-tetrahydro-18,21-etheno-9,13-(metheno)-6,14,17-trioxa-2-thia-3,5-diazacyclononadeca[1,2,3-cd]indene-7-carboxylic Acid] | 2.67 nM | 0.375 nM | 0.00386 µM | 0.00914 µM
4 | COCCOCCOCCOCCOCCOCC1(c2nccc(COc3ccc4cc3C[C@H](C(=O)O)Oc3ncnc5sc(-c6ccc(F)cc6)c(c35)-c3c(C)c(Cl)c(c(Cl)c3C)O[C@H](CN3CCN(C)CC3)CO4)n2)CCCC1 [Example 76, (7R,16R)-19,23-dichloro-1-(4-fluorophenyl)-10-({2-[1-(2,5,8,11,14,17-hexaoxaoctadecan-1-yl)cyclopentyl]pyrimidin-4-yl}methoxy)-20,22-dimethyl-16-[(4-methylpiperazin-1-yl)methyl]-7,8,15,16-tetrahydro-18,21-etheno-13,9-(metheno)-6,14,17-trioxa-2-thia-3,5-diazacyclononadeca[1,2,3-cd]indene-7-carboxylic Acid] | 0.634 nM | 0.16 nM | 0.000409 µM | 0.000648 µM
5 | Cc1c(Cl)c2c(Cl)c(C)c1-c1c(-c3ccc(F)cc3)sc3ncnc(c13)O[C@@H](C(=O)O)Cc1cc(ccc1OCc1ccnc(C3(COCCOC[C@H]4COCCO4)CCC3)n1)OC[C@@H](CN1CCN(C)CC1)O2 [Example 77, (7R,16R)-19,23-dichloro-10-[(2-{1-[(2-{[(2R)-1,4-dioxan-2-yl]methoxy}ethoxy)methyl]cyclobutyl}pyrimidin-4-yl)methoxy]-1-(4-fluorophenyl)-20,22-dimethyl-16-[(4-methylpiperazin-1-yl)methyl]-7,8,15,16-tetrahydro-18,21-etheno-13,9-(metheno)-6,14,17-trioxa-2-thia-3,5-diazacyclononadeca[1,2,3-cd]indene-7-carboxylic Acid] | 0.325 nM | 0.089 nM | 0.000193 µM | 0.000405 µM
6 | Cc1c2ccc(c1Cl)O[C@H](CN1CCN(C)CC1)COc1ccc(OCc3ccnc(N4CCC5(CC4)CC(F)(F)CO5)n3)c(c1)C[C@H](C(=O)O)Oc1ncnc3sc(-c4ccc(F)cc4)c-2c13 [Example 78, (7R,16R)-19-chloro-10-{[2-(3,3-difluoro-1-oxa-8-azaspiro[4.5]decan-8-yl)pyrimidin-4-yl]methoxy}-1-(4-fluorophenyl)-20-methyl-16-[(4-methylpiperazin-1-yl)methyl]-7,8,15,16-tetrahydro-18,21-etheno-13,9-(metheno)-6,14,17-trioxa-2-thia-3,5-diazacyclononadeca[1,2,3-cd]indene-7-carboxylic Acid] | 16 nM | 2.28 nM | 0.000935 µM | 0.00552 µM
7 | COC1CC2(C1)CN(c1nccc(COc3ccc4cc3C[C@H](C(=O)O)Oc3ncnc5sc(-c6ccc(F)cc6)c(c35)-c3c(C)c(Cl)c(c(Cl)c3C)O[C@H](CN3CCN(C)CC3)CO4)n1)C2 [Example 79, (7R,16R)-19,23-dichloro-1-(4-fluorophenyl)-10-{[2-(6-methoxy-2-azaspiro[3,3]heptan-2-yl)pyrimidin-4-yl]methoxy}-20,22-dimethyl-16-[(4-methylpiperazin-1-yl)methyl]-7,8,15,16-tetrahydro-18,21-etheno-9,13-(metheno)-6,14,17-trioxa-2-thia-3,5-diazacyclononadeca[1,2,3-cd]indene-7-carboxylic Acid] | 1 nM | 0.088 nM | 0.000418 µM | 0.00163 µM
8 | Cc1c(Cl)c2c(Cl)c(C)c1-c1c(-c3ccc(F)cc3)sc3ncnc(c13)O[C@@H](C(=O)O)Cc1cc(ccc1OCc1ccnc(C(C)(C)COCCOC[C@H]3COCCO3)n1)OC[C@@H](CN1CCN(C)CC1)O2 [Example 80, (7R,16R)-19,23-dichloro-10-({2-[1-(2-{[(2R)-1,4-dioxan-2-yl]methoxy}ethoxy)-2-methylpropan-2-yl]pyrimidin-4-yl}methoxy)-1-(4-fluorophenyl)-20,22-dimethyl-16-[(4-methylpiperazin-1-yl)methyl]-7,8,15,16-tetrahydro-18,21-etheno-13,9-(metheno)-6,14,17-trioxa-2-thia-3,5-diazacyclononadeca[1,2,3-cd]indene-7-carboxylic Acid] | 0.797 nM | 0.107 nM | 0.000189 µM | 0.000954 µM
9 | COCCOCCOCCOCCOCCO[C@H]1CC[C@@H](c2nccc(COc3ccc4cc3C[C@H](C(=O)O)Oc3ncnc5sc(-c6ccc(F)cc6)c(c35)-c3c(C)c(Cl)c(c(Cl)c3C)O[C@H](CN3CCN(C)CC3)CO4)n2)CC1 [Example 82, (7R,16R)-19,23-dichloro-1-(4-fluorophenyl)-20,22-dimethyl-16-[(4-methylpiperazin-1-yl)methyl]-10-[(2-{(1s,4s)-4-[(2,5,8,11,14-pentaoxahexadecan-16-yl)oxy]cyclohexyl}pyrimidin-4-yl)methoxy]-7,8,15,16-tetrahydro-18,21-etheno-13,9-(metheno)-6,14,17-trioxa-2-thia-3,5-diazacyclononadeca[1,2,3-cd]indene-7-carboxylic Acid] | 0.135 nM | 0.014 nM | 0.000563 µM | 0.00109 µM
10 | COCCOCCOCCOCCOCCOCC1(c2nccc(COc3ccc4cc3C[C@H](C(=O)O)Oc3ncnc5sc(-c6ccc(F)cc6)c(c35)-c3c(C)c(Cl)c(c(Cl)c3C)O[C@H](CN3CCN(C)CC3)CO4)n2)CCCCC1 [Example 88, (7R,16R)-19,23-dichloro-1-(4-fluorophenyl)-10-({2-[1-(2,5,8,11,14,17-hexaoxaoctadecan-1-yl)cyclohexyl]pyrimidin-4-yl}methoxy)-20,22-dimethyl-16-[(4-methylpiperazin-1-yl)methyl]-7,8,15,16-tetrahydro-18,21-etheno-13,9-(metheno)-6,14,17-trioxa-2-thia-3,5-diazacyclononadeca[1,2,3-cd]indene-7-carboxylic Acid] | 0.143 nM | 0.033 nM | 0.00117 µM | 0.00206 µM
11 | COCCOCCOCCOCCOc1nccc(COc2ccc3cc2C[C@H](C(=O)O)Oc2ncnc4sc(-c5ccc(F)cc5)c(c24)-c2c(C)c(Cl)c(c(Cl)c2C)O[C@H](CN2CCN(C)CC2)CO3)n1 [Example 89, (7R,16R)-19,23-dichloro-1-(4-fluorophenyl)-20,22-dimethyl-16-[(4-methylpiperazin-1-yl)methyl]-10-({2-[(2,5,8,11-tetraoxatridecan-13-yl)oxy]pyrimidin-4-yl}methoxy)-7,8,15,16-tetrahydro-18,21-etheno-13,9-(metheno)-6,14,17-trioxa-2-thia-3,5-diazacyclononadeca[1,2,3-cd]indene-7-carboxylic Acid] | 0.485 nM | 0.067 nM | 0.00262 µM | 0.00299 µM
12 | COCCOCCOCCOc1ccc(-c2nccc(COc3ccc4cc3C[C@H](C(=O)O)Oc3ncnc5sc(C6CCCCC6)c(c35)-c3c(C)c(Cl)c(c(Cl)c3C)O[C@H](CN3CCN(C)CC3)CO4)n2)cc1 [Example 90, (7R,16R)-19,23-dichloro-1-cyclohexyl-10-{[2-(4-{2-[2-(2-methoxyethoxy)ethoxy]ethoxy}phenyl)pyrimidin-4-yl]methoxy}-20,22-dimethyl-16-[(4-methylpiperazin-1-yl)methyl]-7,8,15,16-tetrahydro-18,21-etheno-13,9-(metheno)-6,14,17-trioxa-2-thia-3,5-diazacyclononadeca[1,2,3-cd]indene-7-carboxylic Acid] | 3.41 nM | 0.044 nM | 0.000183 µM | 0.000787 µM
